Data on 89 compounds can be found in publication PMC12040169 (PLOS Biology, 2025).

Each structure is given as a SMILES string.

One data set is described as follows: in vitro. As to conditions: human, hela cells, % viability.
On to `CC(C)(C)OC(=O)N1CCC(CNS(=O)(=O)c2cc(Cl)sc2Cl)CC1` [CBK086018], for which the viability at 28.5 h, 10 µM was 114%.

As for `N#Cc1ccc(NC(=O)Nc2ccccc2)cc1` [CBK086045], the viability at 28.5 h, 10 µM was 87.8%.

Take `O=C(Nc1ccc(Cl)cc1)Nc1ccc(OCC(O)CN2CCCCC2)cc1` (centres unmarked) [CBK086101]: the viability at 28.5 h, 10 µM came to 99.4%.

In the case of `N#Cc1cnn(-c2ccc(Cl)cc2Cl)c1N` [CBK086125], the viability at 28.5 h, 10 µM worked out at 89.2%.

For `CSCC(CSC)OC(=O)Nc1ccc(Cl)cc1` [CBK086154], the viability at 28.5 h, 10 µM was found to be 93.9%.

As for `O=C(O)CC1(CC(=O)N2CCN(C(c3ccccc3)c3ccccc3)CC2)CCCC1` [CBK086174], the viability at 28.5 h, 10 µM was 98.7%.

As to `O=C(CC1C(=O)NCCN1C(=O)Nc1ccc(OCc2ccccc2)cc1)Nc1ccc(F)cc1` (centres unmarked) [CBK086203], the viability at 28.5 h, 10 µM came to 113%.

Consider `CCCc1cnc(N2CCN(S(=O)(=O)c3ccc(NC(C)=O)cc3Cl)CC2)nc1` [CBK086208], for which the viability at 28.5 h, 10 µM was found to be 117%.

Consider `Clc1ccc(CNCc2cccnc2)cc1` [CBK086257C], for which the viability at 28.5 h, 10 µM turned out to be 108%.

Turning to `CSc1nc(O)nc(-c2ccccc2)n1` [CBK086310], the viability at 28.5 h, 10 µM turned out to be 95.4%.

`Cc1cc(C)c(NC(N)=O)c(C)c1` [CBK086399]: the viability at 28.5 h, 10 µM was 105%.

On to `CCOC(=O)C1=C(C)NC(=O)NC1c1cccs1` (centres unmarked) [CBK086430], for which the viability at 28.5 h, 10 µM is 78%.

As for `O=C(CN1CCOCC1)Nc1ccc(Cl)cc1C(=O)c1ccccc1` [CBK086450], the viability at 28.5 h, 10 µM came to 95.9%.

For `CCSc1nc(N)cc(O)n1` [CBK086474], the viability at 28.5 h, 10 µM turned out to be 90.5%.

Consider `Cc1cc2nc(-c3ccccc3)[nH]c2cc1C` [CBK086484], for which the viability at 28.5 h, 10 µM came to 80.1%.

Consider `OCCCNC(=S)Nc1ccc(Br)cc1Cl` [CBK086487], for which the viability at 28.5 h, 10 µM came to 82.3%.

In the case of `CC1=CCC2C(=O)N(c3ccccc3)C(=O)C2C1` (centres unmarked) [CBK086490], the viability at 28.5 h, 10 µM was determined as 84.1%.

Regarding `O=C1COCC(=O)N1c1ccc(I)cc1` [CBK086499], the viability at 28.5 h, 10 µM worked out at 87.5%.

For `CC(C)(CC(=O)O)CC(=O)Nc1ccc(Cl)c(Cl)c1` [CBK086500], the viability at 28.5 h, 10 µM turned out to be 92.6%.

`Cc1onc(-c2c(Cl)cccc2Cl)c1N(C)C(=O)N1CCCCC1` [CBK086555]: the viability at 28.5 h, 10 µM worked out at 109%.

Turning to `CC(C)(C)OC(=O)NC1CCN(C(=O)Nc2ccc(OCc3ccccc3)cc2)CC1` [CBK086602], the viability at 28.5 h, 10 µM came out at 98.4%.

In the case of `O=C1NC2(CCNCC2)Oc2ccc(-c3cccnc3)cc21` [CBK086611], the viability at 28.5 h, 10 µM worked out at 95.4%.

Consider `CCOC(=O)c1cnc(SC)nc1NCCc1c[nH]cn1` [CBK086623], for which the viability at 28.5 h, 10 µM was 92.6%.

With `O=C(NCc1ccccc1)c1ccco1` [CBK086713], the viability at 28.5 h, 10 µM was 118%.

For the compound `Cc1cc(OCC(O)CN(Cc2ccccc2)C(C)(C)C)ccc1[N+](=O)[O-]` (centres unmarked) [CBK086757], the viability at 28.5 h, 10 µM was determined as 99.6%.

For the compound `Cc1ccccc1C(=O)Nc1ccc(S(=O)(=O)Nc2nccs2)cc1` [CBK086797], the viability at 28.5 h, 10 µM amounted to 89.4%.

Consider `O=C(COc1cccc2ccccc12)N/N=C/c1ccco1` [CBK086853], for which the viability at 28.5 h, 10 µM turned out to be 103%.

On to `CC(C)(C)c1nnc(NC(=O)c2ccc(F)cc2)s1` [CBK086855], for which the viability at 28.5 h, 10 µM was 89%.

With `COc1cc2c(cc1OC)/C(=C(\C(=O)Nc1ccccc1)C(=O)N1CCCCC1)NC(C)(C)C2` [CBK087103], the viability at 28.5 h, 10 µM was found to be 94.5%.

As for `Cc1cc(C)n(-c2nc3c(c(=O)[nH]c(=O)n3C)n2CCc2ccccc2)n1` [CBK087129], the viability at 28.5 h, 10 µM is 90.2%.

Turning to `O=C(O)CCNc1ccc(Br)cc1C(=O)O` [CBK087259], the viability at 28.5 h, 10 µM stood at 96.9%.

Consider `Nc1nc2ccccc2n1CCOc1ccc(Cl)cc1` [CBK087352], for which the viability at 28.5 h, 10 µM amounted to 85.9%.

`COc1cccc(N2CCC(=O)N2)c1` [CBK087441]: the viability at 28.5 h, 10 µM turned out to be 87%.

Consider `O=C1CC(c2ccc3c(c2)OCO3)c2ccc3ccccc3c2N1` (centres unmarked) [CBK087469], for which the viability at 28.5 h, 10 µM was 95.8%.

Turning to `Cc1c(Br)c(C(F)(F)F)nn1CC(=O)Nc1cc(C(F)(F)F)ccc1Cl` [CBK087518], the viability at 28.5 h, 10 µM worked out at 92.5%.

For `Cc1ccc(S(=O)(=O)Nc2ccccc2-c2nc3ccccc3c(=O)o2)cc1` [CBK087613], the viability at 28.5 h, 10 µM came out at 94.5%.

As for `O=C(O)CCC(NC(=O)c1ccc(I)cc1)C(=O)O` (centres unmarked) [CBK087614], the viability at 28.5 h, 10 µM came out at 95.8%.

On to `Cc1c(C)n(Cc2ccccc2)c2ccc(C(=O)OCCCN(C)C)cc12` [CBK087693], for which the viability at 28.5 h, 10 µM is 91.7%.

As for `CCC(=O)NCCc1c[nH]c2ccc([N+](=O)[O-])cc12` [CBK088059], the viability at 28.5 h, 10 µM worked out at 110%.

As for `Cc1c(NC(=O)c2ccccc2Cl)c(=O)n(-c2ccccc2)n1C` [CBK088068], the viability at 28.5 h, 10 µM turned out to be 105%.

Turning to `O=c1[nH]c2ccccc2nc1-c1cc(Br)ccc1NCc1ccccc1` [CBK088071], the viability at 28.5 h, 10 µM is 106%.

In the case of `CC(C)Nc1nccnc1-c1ccc(CO)cc1` [CBK088519], the viability at 28.5 h, 10 µM stood at 90.1%.

`c1ccc(-c2nccnc2NCC2CC2)cc1` [CBK088539]: the viability at 28.5 h, 10 µM is 88.4%.

Consider `COCCNc1nccnc1-c1ccccc1` [CBK088555], for which the viability at 28.5 h, 10 µM was 105%.

Consider `COCCNc1nccnc1-c1cnc(OC)nc1OC` [CBK088558], for which the viability at 28.5 h, 10 µM stood at 109%.

As to `CCNc1nccnc1-c1cnc(OC)nc1OC` [CBK088587], the viability at 28.5 h, 10 µM turned out to be 93.9%.

With `CCNc1nccnc1-c1cccc(O)c1` [CBK088593], the viability at 28.5 h, 10 µM was determined as 103%.

As for `COc1ccccc1-c1nccnc1NCc1cccs1` [CBK088682], the viability at 28.5 h, 10 µM came to 88%.

With `OCc1ccc(-c2nccnc2NCc2cccs2)cc1` [CBK088689], the viability at 28.5 h, 10 µM came out at 99.1%.

As to `C[C@H](Nc1nccnc1-c1ccsc1)c1ccccc1` [CBK088716], the viability at 28.5 h, 10 µM was determined as 94.9%.

On to `CC(C)CNc1nccnc1-c1ccc2c(c1)OCO2` [CBK088730], for which the viability at 28.5 h, 10 µM was 98.4%.

Regarding `CC(C)CNc1nccnc1-c1ccc(Cl)cc1` [CBK088738], the viability at 28.5 h, 10 µM was 91.3%.

Turning to `Nc1nn2c(c1Cc1c(Cl)cccc1Cl)OCC2` [CBK088759], the viability at 28.5 h, 10 µM amounted to 91.7%.

As to `CN1CCN(c2nccnc2-c2ccccc2)CC1` [CBK088825], the viability at 28.5 h, 10 µM was found to be 88.7%.

For `CCCNc1nccnc1-c1cccc(Cl)c1Cl` [CBK088892], the viability at 28.5 h, 10 µM is 93.8%.

On to `CCCNc1nccnc1-c1cccc(CO)c1` [CBK088897], for which the viability at 28.5 h, 10 µM is 91.5%.

As to `Nc1c(Cc2c(Cl)cccc2Cl)c(=O)n2n1CCC2` [CBK088948], the viability at 28.5 h, 10 µM is 98.9%.

For `Fc1ccc(-c2nccnc2NCc2ccncc2)cc1` [CBK088964], the viability at 28.5 h, 10 µM amounted to 98.8%.

Regarding `COc1ccccc1-c1nccnc1NCCCO` [CBK088971], the viability at 28.5 h, 10 µM was 98.8%.

Regarding `OCCCNc1nccnc1-c1cccc(F)c1` [CBK088976], the viability at 28.5 h, 10 µM came out at 98.5%.

`CC(C)[C@@H](CO)Nc1nccnc1-c1cccs1` [CBK089024]: the viability at 28.5 h, 10 µM was found to be 93.7%.

For `COc1ccccc1-c1nccnc1N[C@@H](CO)C(C)C` [CBK089034], the viability at 28.5 h, 10 µM was found to be 93.6%.

For the compound `OCC1CCCN1c1nccnc1-c1ccoc1` (centres unmarked) [CBK089057], the viability at 28.5 h, 10 µM came out at 105%.

With `OCC1CCCN1c1nccnc1-c1cccs1` (centres unmarked) [CBK089060], the viability at 28.5 h, 10 µM was determined as 106%.

With `CC(O)CNc1nccnc1-c1ccccc1` (centres unmarked) [CBK089257], the viability at 28.5 h, 10 µM turned out to be 95.7%.

With `c1cncc(CNc2nccnc2-c2ccsc2)c1` [CBK089314], the viability at 28.5 h, 10 µM amounted to 113%.

Take `Nc1c(Cc2c(Cl)cccc2Cl)c(=O)n2n1CCCC2` [CBK089337]: the viability at 28.5 h, 10 µM was determined as 95%.

In the case of `CCC1CCCCN1C(=O)c1cc(C)oc1C` (centres unmarked) [CBK089358], the viability at 28.5 h, 10 µM was found to be 105%.

For the compound `O=C(N1CCOCC1)C12CC3CC(CC(C3)C1)C2` [CBK089368], the viability at 28.5 h, 10 µM worked out at 90.3%.

Take `CC(C)Nc1nccnc1Sc1cccs1` [CBK089490]: the viability at 28.5 h, 10 µM was determined as 123%.

As for `CC(C)Nc1cc(Sc2ccc(Br)cc2)ncn1` [CBK089502], the viability at 28.5 h, 10 µM is 103%.

For the compound `Nc1ccc(Sc2nccnc2N2CCCC2)cc1` [CBK089520], the viability at 28.5 h, 10 µM worked out at 94.4%.

Consider `COc1cccc(Sc2cc(N3CCCC3)ncn2)c1` [CBK089533], for which the viability at 28.5 h, 10 µM worked out at 110%.

For the compound `c1ccc2c(Sc3cc(N4CCCC4)ncn3)cccc2c1` [CBK089538], the viability at 28.5 h, 10 µM came to 94.2%.

As for `Fc1ccc(Sc2nc3ccccc3nc2N2CCCC2)cc1` [CBK089543], the viability at 28.5 h, 10 µM came to 101%.

As to `CC(C)(C)OCc1[nH]nc(O)c1Cc1c(Cl)cccc1Cl` [CBK089569], the viability at 28.5 h, 10 µM came to 106%.

In the case of `CCCNCC(=O)N1CN(C(=O)c2ccc(C)cc2)C(C)(C)C1` [CBK089572C], the viability at 28.5 h, 10 µM amounted to 111%.

In the case of `Cc1ccc(C(=O)N2CN(C(=O)CNC3CC3)CC2(C)C)cc1` [CBK089574C], the viability at 28.5 h, 10 µM was 98.4%.

`Nc1cccc(Sc2ccc(C(F)(F)F)cn2)c1` [CBK089606]: the viability at 28.5 h, 10 µM amounted to 107%.

As to `FC(F)(F)c1cccc(Sc2ccc(Cl)c(Cl)c2)n1` [CBK089608], the viability at 28.5 h, 10 µM was found to be 91.2%.

With `CCNc1cc2ccccc2c(-c2ccc(OC)c(C)c2)n1` [CBK089644], the viability at 28.5 h, 10 µM was 86%.

Take `CCc1nccnc1OC` [CBK089673]: the viability at 28.5 h, 10 µM was 101%.

On to `OCCNc1nccnc1Cl` [CBK089793], for which the viability at 28.5 h, 10 µM came to 114%.

On to `CC(C)(C)S(=O)(=O)Cc1noc(-c2ccc(Cl)nc2)n1` [CBK089825], for which the viability at 28.5 h, 10 µM stood at 98.9%.

As for `COC(=O)C(N)c1c[nH]c2ccccc12` (centres unmarked) [CBK089840], the viability at 28.5 h, 10 µM came to 104%.

Staying with this data set, now noted: human, hela cells, % viability, bulk resorufin, single well.
Consider `CN1C(=O)CC(c2ccccc2)Nc2ccccc21` (centres unmarked) [CBK086373C], for which the viability at 28.5 h, 10 µM came out at 103%.

On to `CNC(=O)c1nn(Cc2ccc(Cl)cc2)c2ccccc12` [CBK088451], for which the viability at 28.5 h, 10 µM amounted to 87.6%.

For the compound `O=C(O)c1nn(Cc2ccc(Cl)c(Cl)c2)c2ccccc12` [CBK088455], the viability at 28.5 h, 10 µM turned out to be 91.2%.

On to `CCOC(=O)N1CCC2(CC1)Oc1ccc(Br)cc1O2` [CBK089365], for which the viability at 28.5 h, 10 µM is 80.9%.
